According to the NIST ThermoML archive (doi:10.1016/j.tca.2013.05.023):

What was measured:
[1] = molar heat capacity at constant pressure; xn = mol fraction of the nth substance listed; settings: 101 kPa, Liquid, Small sample (50 mg) DSC, x1 = 0.3333
[2] = xn = mol fraction of the nth substance listed; settings: 101 kPa, Liquid, Alternating current cell with electrodes, x1 = 0.3333

CCN(CC)CCO.Cl [2-(diethylamino)ethanol hydrochloride] + OCC(O)CO
Settings | electrical conductivity, [2] [S/m] | molar heat capacity at constant pressure, [1] [J/K/mol]
298.15 K | 0.069 | –
303.15 K | 0.098 | 83.46
308.15 K | 0.134 | 83.96
313.15 K | 0.175 | 84.39
318.15 K | 0.228 | 85.16
323.15 K | 0.293 | 85.72
328.15 K | 0.368 | 86.36
333.15 K | 0.456 | 86.96
338.15 K | 0.556 | 87.79
343.15 K | 0.667 | 88.46
348.15 K | – | 89.09
353.15 K | – | 89.76

CCN(CC)CCO.Cl [2-(diethylamino)ethanol hydrochloride] + OCCO
Settings | electrical conductivity, [2] [S/m] | molar heat capacity at constant pressure, [1] [J/K/mol]
298.15 K | 0.47 | –
303.15 K | 0.565 | 68.03
308.15 K | 0.68 | 68.43
313.15 K | 0.81 | 68.83
318.15 K | 0.96 | 69.33
323.15 K | 1.12 | 69.83
328.15 K | 1.29 | 70.36
333.15 K | 1.48 | 71.03
338.15 K | 1.68 | 71.53
343.15 K | 1.88 | 72.09
348.15 K | – | 72.69
353.15 K | – | 73.26
